Data published in publication PMC9814838, “The orphan nuclear receptor Nurr1 is responsive to non-steroidal anti-inflammatory drugs” (Communications Chemistry, 2020).
“Also recorded” adds a separate entry of the source. No end group written: not given here. fluorescein = fluorescein label on the N-terminus

Assays:
Nurr1 = molecular target: T1, Nurr1 (Homo sapiens, UniProt P43354); experiment: Gal4-Nurr1 hybrid reporter gene assay in HEK293T cells; type: cell-based; conditions: HEK293T; mean ± SD; n≥3
T1 construct: Nurr1 (uniprot entry: hNURR1–P43354, residues 360–598); expressed in transfected cells; host or cells: HEK293T

NBRE: Nurr1 monomer = molecular target: T2, NBRE: Nurr1 monomer (Homo sapiens, UniProt P43354); experiment: Full-length Nurr1 reporter gene assay on NBRE response element; type: cell-based; conditions: full-length human Nurr1; HEK293T; mean ± SD
T2 construct: the activity of full-length human Nurr1 in cellular settings; host or cells: HEK293T

NurRE: Nurr1 homodimer = molecular target: T3, NurRE: Nurr1 homodimer (Homo sapiens, UniProt P43354); experiment: Full-length Nurr1 reporter gene assay on NurRE response element; type: cell-based; conditions: full-length human Nurr1; HEK293T; mean ± SD
T3 construct: the activity of full-length human Nurr1 in cellular settings; host or cells: HEK293T

[1] = molecular target: T4, DR5: Nurr1–RXRα heterodimer (Homo sapiens, UniProt P43354); experiment: Full-length Nurr1 reporter gene assay on DR5 response element; type: cell-based; conditions: full-length human Nurr1 and RXRα overexpressed; HEK293T; mean ± SD
T4 construct: the activity of full-length human Nurr1 in cellular settings; host or cells: HEK293T

Nurr1 LBD homodimer = molecular target: T5, Nurr1 LBD homodimer (Homo sapiens, UniProt P43354); experiment: Nurr1 homodimerization HTRF (GFP-Nurr1 LBD vs Tb-labeled Nurr1 LBD); type: biochemical; conditions: cell-free; ligand 100 µM
T5 construct: Nurr1 (uniprot entry: P43354-1, residues 364–598); MBP-Asn10 linker (N, cleaved yes); His8-Tag (N, cleaved yes); His10-Tag (N, cleaved yes); made in house; host or cells: E. coli T7 express (with pGro7)
Method: Strength and modulation of the formation of the heterodimer composed of the LBDs of Nurr1 and RXRα was investigated by titration of GFP-RXRα LBD against a fixed concentration of Nurr1 LBD. Assay solutions were prepared in HTRF assay buffer supplemented with 0.1% (w/v) CHAPS as well as 1% DMSO with test compounds at 100 µM or DMSO alone as negative control. […] Free GFP was added to keep the total GFP content stable at 4 µM throughout the entire series in order to suppress artefacts from changes in degree of diffusion enhanced FRET. Samples were equilibrated at RT for 2 h before FI520 and FI620 were recorded after excitation at 340 nm, and the HTRF signal was calculated as described above.

Nurr1–NCoR-1 interaction = molecular target: T6, Nurr1–NCoR-1 interaction (Homo sapiens, UniProt P43354); experiment: Nurr1–NCoR-1 interaction HTRF (GFP-Nurr1 LBD titrated against Tb-labeled NCoR-1); type: biochemical; conditions: cell-free; ligand fixed at 100 µM
T6 construct: Nurr1 (uniprot entry: P43354-1, residues 364–598); His10-Tag (N, cleaved yes); made in house; host or cells: E. coli T7 express (with pGro7)
Method: Since ligand concentration was fixed in this setting, interference with the HTRF system is less prone to generate potential artifacts.
To maintain a constant GFP concentration, free GFP protein was added to the dilution series. The experiments were performed in HTRF assay buffer (150 mM KF, 25 mM HEPES pH 7.5 (KOH), 5% (w/v) Glycerol, supplemented with 0.1% (w/v) CHAPS and 5 mM DTT) with 1% DMSO in an assay volume of 20 µl. After 1 h incubation at RT, fluorescence intensities after excitation at 340 nm were recorded at 520 nm for GFP acceptor fluorescence and 620 nm for Tb-SA donor fluorescence and the HTRF signal was calculated as described above.

[2] = molecular target: T7, biotinylated recombinant Nurr1 LBD (Tb-labeled through Tb-cryptate streptavidin) (human, UniProt P43354-1 364-598, biotin on the lysine residue in the Avi-Tag); experiment: AlphaScreen or HTRF; Nurr1 homodimerization: GFP-Nurr1 LBD titrated from 500 nM against biotinylated Nurr1 LBD 0.375 nM on Tb-SA 0.75 nM; free GFP added to keep total GFP at 500 nM; HTRF assay buffer with 0.1% CHAPS; 1% DMSO alone or with AQ, CQ, parecoxib or oxaprozin at 100 µM; 2 h at RT; conditions: both partners purified
T7 construct: In the assays coupled to terbium cryptate streptavidin conjugate (Tb-SA) as FRET donor; also called Tb-labeled Nurr1 LBD; Tb-cryptate-labeled Nurr1 LBD; source: E. coli T7 express with pGro7, purified (IMAC, TEV cleavage, amylose resin, birA biotinylation, monomeric avidin, SEC); not shown: MBP, N-terminal, cleaved; His8, N-terminal, cleaved; Avi-Tag, N-terminal, kept

[3] = molecular target: T7, biotinylated recombinant Nurr1 LBD …; experiment: AlphaScreen or HTRF; co-regulator recruitment: biotinylated Nurr1 LBD 3 nM on Tb-SA 3 nM (donor), fluorescein-labeled peptide 100 nM (acceptor); HTRF assay buffer (25 mM HEPES pH 7.5, 150 mM KF, 10% glycerol, 5 mM DTT) with 0.1% CHAPS; 1% DMSO alone or with AQ, CQ, MFA, parecoxib or oxaprozin at 100 µM (dose-response too); 2 h at RT; conditions: both partners purified

T1 sequence (P43354 360-598): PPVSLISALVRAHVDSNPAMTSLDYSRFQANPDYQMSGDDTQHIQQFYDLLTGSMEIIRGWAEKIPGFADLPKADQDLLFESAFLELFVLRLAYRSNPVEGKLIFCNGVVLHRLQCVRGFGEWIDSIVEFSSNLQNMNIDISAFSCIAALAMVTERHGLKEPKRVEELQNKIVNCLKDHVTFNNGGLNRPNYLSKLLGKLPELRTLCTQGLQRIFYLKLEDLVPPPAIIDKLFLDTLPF
T3 sequence (P43354 whole entry): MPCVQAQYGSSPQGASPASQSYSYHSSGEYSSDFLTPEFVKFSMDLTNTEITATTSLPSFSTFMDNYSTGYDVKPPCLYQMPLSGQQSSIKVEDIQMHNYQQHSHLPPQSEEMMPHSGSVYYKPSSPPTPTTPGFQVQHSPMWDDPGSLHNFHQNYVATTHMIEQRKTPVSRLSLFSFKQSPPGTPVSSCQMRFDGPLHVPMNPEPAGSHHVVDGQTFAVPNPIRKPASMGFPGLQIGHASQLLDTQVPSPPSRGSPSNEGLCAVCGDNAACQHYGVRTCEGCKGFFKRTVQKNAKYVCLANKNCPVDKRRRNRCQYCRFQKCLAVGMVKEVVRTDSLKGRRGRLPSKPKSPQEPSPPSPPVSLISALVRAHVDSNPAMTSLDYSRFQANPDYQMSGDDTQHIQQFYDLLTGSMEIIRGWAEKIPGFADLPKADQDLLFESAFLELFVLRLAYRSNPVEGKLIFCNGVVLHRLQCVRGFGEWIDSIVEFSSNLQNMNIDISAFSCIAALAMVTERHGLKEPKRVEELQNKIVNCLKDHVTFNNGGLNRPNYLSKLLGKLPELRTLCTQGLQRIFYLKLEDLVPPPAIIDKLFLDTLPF
T4 sequence (P43354 whole entry, one chain of several): as the sequence (P43354 whole entry) above
T2 sequence (P43354 whole entry): as above

CCN(CC)CCCC(C)Nc1ccnc2cc(Cl)ccc12 (stereo not drawn) [CQ, chloroquine]
EC50 (Nurr1): 47 µM | EC50 (NBRE: Nurr1 monomer): 38 µM | EC50 (NurRE: Nurr1 homodimer): 54 µM | EC50 [1]: 57 µM | Homodimerization (effect of ligand) (Nurr1 LBD homodimer): promoted homodimerization; also recorded: Promotes dimerization | NCoR-1 affinity (effect of ligand) (Nurr1–NCoR-1 interaction): promoted the Nurr1–NCoR-1 interaction; also recorded: Enhances affinity

B1: GFP-Nurr1 LBD (domain or fragment, human, UniProt P43354-1 364-598, looked up)
chain: LISALVRAHVDSNPAMTSLDYSRFQANPDYQMSGDDTQHIQQFYDLLTGSMEIIRGWAEKIPGFADLPKADQDLLFESAFLELFVLRLAYRSNPVEGKLIFCNGVVLHRLQCVRGFGEWIDSIVEFSSNLQNMNIDISAFSCIAALAMVTERHGLKEPKRVEELQNKIVNCLKDHVTFNNGGLNRPNYLSKLLGKLPELRTLCTQGLQRIFYLKLEDLVPPPAIIDKLFLDTLPF
notes: Superfolder GFP is the FRET acceptor; a BamHI site lies between GFP and the LBD; also called GFP-labeled Nurr1 LBD; source: E. coli T7 express with pGro7, purified (IMAC, TEV cleavage, reverse IMAC, SEC); not shown: His10, N-terminal, cleaved; superfolder GFP, N-terminal, kept
binding result [2]: binds

B2: nuclear receptor co-repressor (NCOR) ID1 peptide, fluorescein-labeled (peptide)
peptide: fluorescein-RTHRLITLADHICQIITQDFARN
notes: also called NCoR-1; source: bought: ThermoFisher Scientific (Life Technologies)
binding result [3]: binds

B3: silencing mediator for retinoid and thyroid hormone receptor (SMRT) ID2 peptide, fluorescein-labeled (peptide)
peptide: fluorescein-HASTNMGLEAIIRKALMGKYDQW
notes: also called NCoR-2; source: bought: ThermoFisher Scientific (Life Technologies)
binding result [3]: binds

B4: nuclear receptor interacting protein 1 (NRIP1, also termed RIP140, interaction motif L6) peptide, fluorescein-labeled (peptide)
peptide: fluorescein-SHQKVTLLQLLLGHKNEEN
notes: also called RIP140L6; source: bought: ThermoFisher Scientific (Life Technologies)
binding result [3]: binds

B5: nuclear receptor co-activator 6 (NCoA6, also termed PRIPRAP250) peptide, fluorescein-labeled (peptide)
peptide: fluorescein-VTLTSPLLVNLLQSDISAG
notes: also called TRBP; source: bought: ThermoFisher Scientific (Life Technologies)
binding result [3]: binds

B6: D22 peptide, fluorescein-labeled (peptide)
peptide: fluorescein-LPYEGSLLLKLLRAPVEEV
notes: source: bought: ThermoFisher Scientific (Life Technologies)
binding result [3]: binds
